We go through 4 compounds from paper PMC4868691, “β-catenin nuclear translocation in colorectal cancer cells is suppressed by PDE10A inhibition, cGMP elevation, and activation of PKG” (Oncotarget, 2015).

Where two headings read alike, the source gives them in different places. Where only a bound is given, the exact number is not on record here.

In assay [1] the test system is HT-29 cells. The experiment in a line: Growth inhibition with or without H89 pretreatment (CellTiter-Glo). The conditions noted are these: for IC50: Homo sapiens. It is filed as cell-based, human. Here is the method: (§1) C. […] They are assigned to Pf-2545920 because the x-axis label names it as the compound given in dose-response.
(§2) Growth Assays were performed by seeding 5,000 cells per well in a 96-well microtiter plate, or 2,500 cells per well in half-area 96-well microtiter plates. Cells were allowed to settle onto the bottom of the plate before being dosed with compounds in dose-response for 72 hours at 37°C in a humidified incubator containing 5% CO2. After incubation, growth inhibitory activity was assayed using the Cell Titer Glo Assay (Promega) according to manufacturer's recommendations.

The subject of assay [2] is HT-29 cells. The assay is described as follows: Kinase inhibitor pretreatment, VASP phosphorylation after Pf-2545920 stimulation. It is filed as cell-based, human. The method, then: as §1
(§3) Cell lysates were separated by SDS-PAGE using 12% polyacrylamide gel, 7.5% for PDE10 protein analysis, followed by electrophoretic transfer to nitrocellulose membranes. The membranes were then blocked at room temperature on an orbital shaker for 1 hour in a solution of 5% non-fat dry milk in TBS with 0.1% Tween 20 (TBS-T). Membranes were then incubated overnight at 4 degrees on an orbital shaker with appropriate primary antibodies. Membranes were then washed three times with TBS-T before addition of appropriate secondary antibodies, and incubated at room temperature for 1 hour on an orbital shaker. Membranes were washed and developed using SuperSignal West Enhanced Chemiluminescence Reagent (Pierce).

For assay [3], the system named is HT-29 cells. The experiment in a line: PARP cleavage by Western blot. Type of assay: cell-based, human. The conditions noted are these: HT-29, 0.1 μM KT 5823 for 30 minutes before Pf-2545920 at 5 μM and 10 μM for 6 hours. The method, then:
as §3

Assay [4] has as its system HT-29 PDE10 knockdown cells. The assay is described as follows: Growth inhibition, HT-29 PDE10 knockdown cells. The conditions noted are these: Homo sapiens; HT-29 PDE10 knockdown (shRNA) cells. Type of assay: cell-based. The method, then: as §2
(§4) HT-29 PDE10 knockdown cells were generated and described previously. Briefly, lentiviral particles targeting PDE10 were produced in HEK293T cells according to the manufacturer's instruction. HT-29 cells were transduced by the lentivirus particles followed by puromycin selection (5μg/ml) for 2 weeks. Individual cell colonies stably expressing shRNA were selected and isolated in the presence of puromycin, and evaluated by western blotting previously.

The subject of a further assay is HCC-2998. The assay is described as follows: Growth inhibition assay (Cell Titer Glo), HCC-2998. Type of assay: cell-based. The conditions noted are these: Homo sapiens; HCC-2998, 72 hours. Here is the method:
as §2

The next assay concerns the target PDE5 (Homo sapiens, UniProt O76074). The assay is described as follows: Phosphodiesterase isozyme specificity, PDE5. It is filed as biochemical. The conditions noted are these: PDE5, cGMP substrate.
Another assay has as its target PDE3B (Homo sapiens, UniProt Q13370). The assay is described as follows: Phosphodiesterase isozyme specificity, PDE3B. The conditions noted are these: @ 10 μM. Type of assay: biochemical.
A further assay concerns the target PDE11A (Homo sapiens, UniProt Q9HCR9). The assay is described as follows: Phosphodiesterase isozyme specificity, PDE11A. It is filed as biochemical. The conditions noted are these: @ 10 μM.
The test system of another assay is HCT-15. The experiment in a line: Growth inhibition assay (Cell Titer Glo), HCT-15. Type of assay: cell-based. The conditions noted are these: Homo sapiens; HCT-15, 72 hours. Here is the method: as §2
Another assay deals with PDE3A (Homo sapiens, UniProt Q14432). The experiment in a line: Phosphodiesterase isozyme specificity, PDE3A. Type of assay: biochemical.
Chain of PDE3A (Q14432 whole entry, species assumed): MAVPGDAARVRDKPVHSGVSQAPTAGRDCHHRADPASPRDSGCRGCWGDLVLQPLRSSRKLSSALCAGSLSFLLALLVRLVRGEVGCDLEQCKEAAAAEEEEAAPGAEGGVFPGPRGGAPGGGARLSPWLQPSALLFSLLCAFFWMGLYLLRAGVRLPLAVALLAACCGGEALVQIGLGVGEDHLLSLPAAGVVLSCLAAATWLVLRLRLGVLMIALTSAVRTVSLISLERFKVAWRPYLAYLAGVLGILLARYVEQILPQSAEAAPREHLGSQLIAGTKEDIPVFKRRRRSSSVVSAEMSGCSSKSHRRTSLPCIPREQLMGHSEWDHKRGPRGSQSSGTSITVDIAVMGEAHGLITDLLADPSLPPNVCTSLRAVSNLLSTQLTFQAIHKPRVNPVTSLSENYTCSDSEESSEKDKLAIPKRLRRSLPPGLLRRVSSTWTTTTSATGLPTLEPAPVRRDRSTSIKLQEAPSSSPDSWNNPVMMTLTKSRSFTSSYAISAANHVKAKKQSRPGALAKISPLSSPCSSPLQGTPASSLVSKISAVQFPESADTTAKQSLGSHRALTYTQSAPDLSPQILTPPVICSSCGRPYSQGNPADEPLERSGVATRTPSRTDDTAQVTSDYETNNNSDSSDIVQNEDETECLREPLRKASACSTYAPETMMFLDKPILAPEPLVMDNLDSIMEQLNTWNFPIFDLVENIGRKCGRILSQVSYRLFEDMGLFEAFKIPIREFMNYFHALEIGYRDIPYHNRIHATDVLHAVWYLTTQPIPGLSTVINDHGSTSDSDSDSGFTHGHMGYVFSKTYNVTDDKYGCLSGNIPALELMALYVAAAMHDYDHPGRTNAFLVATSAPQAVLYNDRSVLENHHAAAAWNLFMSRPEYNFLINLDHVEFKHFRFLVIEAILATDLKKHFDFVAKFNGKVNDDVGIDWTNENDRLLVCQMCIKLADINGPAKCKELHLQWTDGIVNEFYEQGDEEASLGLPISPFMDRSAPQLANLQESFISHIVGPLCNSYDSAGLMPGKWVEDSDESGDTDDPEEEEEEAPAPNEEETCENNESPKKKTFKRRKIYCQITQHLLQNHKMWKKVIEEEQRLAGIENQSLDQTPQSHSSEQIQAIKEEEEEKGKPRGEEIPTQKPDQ
Assay [5] deals with HCT-116. The experiment in a line: Intracellular cAMP levels. The conditions noted are these: HCT-116, concentration-dependent. It is filed as cell-based, human.
The subject of the next assay is SW-480 colon tumor cells. The assay is described as follows: β-catenin nuclear translocation under Wnt3a stimulation (confocal immunofluorescence). It is filed as cell-based, human. The conditions noted are these: pre-incubation 30 minutes, Wnt3a conditioned media 5 hours. The method, then:
Cover glass bottom 35mm tissue culture dishes were precoated with EmbryoMax 0.1% gelatin from Millipore according to manufacturer's recommendations. Cells were then plated and allowed to grow to 70-90% confluency before treatments. SW-480 cells were serum starved overnight prior to the addition of PDE10 inhibitors at the concentrations indicated. […] Briefly, Wnt3a or parental L-cells lacking Wnt3a were purchased from the ATCC and grown according to the manufacurer's recommendations. Once cells reached confluency, the media was collected and filtered before use. Conditioned media was added to SW-480 cells in order to stimulate nuclear translocation of β-catenin for 5 hours before fixation and staining. Cover glass bottom 35mm tissue culture dishes were precoated with EmbryoMax 0.1% gelatin from Millipore according to manufacturer's recommendations. Cells were then plated and allowed to grow to 70-90% confluency before treatments. Cells were fixed with 10% buffered formalin, before permeabilization with PBS containing 0.1% Trition X-100. Cells were incubated with the appropriate primary antibodies before incubation with secondary antibodies conjugated with Alexa-fluor 488 and mounted using ProLong Gold antifade reagent with DAPI (Molecular Probes-ThermoFisher Scientific). Images were acquired using a Nikon A1 Laser Scanning Confocal microscope. […]

In the next assay the test system is SW620. The experiment in a line: Growth inhibition assay (Cell Titer Glo), SW620. Type of assay: cell-based. The conditions noted are these: Homo sapiens, SW-620; SW620, 72 hours. The method, then: as §2
Assay [6] relates to HCT-116 colon tumor cells. The experiment in a line: VASP/CREB phosphorylation by Western blot (PKG and PKA activation). It is filed as cell-based, human. Here is the method:
as §3

The target in the next assay is PDE4B2 (Homo sapiens, UniProt Q07343). The assay is described as follows: Phosphodiesterase isozyme specificity, PDE4B2. Type of assay: biochemical. The conditions noted are these: PDE4B2, cAMP substrate.
The target in another assay is PDE1A (Homo sapiens, UniProt P54750). The assay is described as follows: Phosphodiesterase isozyme specificity, PDE1A. It is filed as biochemical. The conditions noted are these: @ 10 μM.
Chain of PDE1A (P54750 whole entry, species assumed): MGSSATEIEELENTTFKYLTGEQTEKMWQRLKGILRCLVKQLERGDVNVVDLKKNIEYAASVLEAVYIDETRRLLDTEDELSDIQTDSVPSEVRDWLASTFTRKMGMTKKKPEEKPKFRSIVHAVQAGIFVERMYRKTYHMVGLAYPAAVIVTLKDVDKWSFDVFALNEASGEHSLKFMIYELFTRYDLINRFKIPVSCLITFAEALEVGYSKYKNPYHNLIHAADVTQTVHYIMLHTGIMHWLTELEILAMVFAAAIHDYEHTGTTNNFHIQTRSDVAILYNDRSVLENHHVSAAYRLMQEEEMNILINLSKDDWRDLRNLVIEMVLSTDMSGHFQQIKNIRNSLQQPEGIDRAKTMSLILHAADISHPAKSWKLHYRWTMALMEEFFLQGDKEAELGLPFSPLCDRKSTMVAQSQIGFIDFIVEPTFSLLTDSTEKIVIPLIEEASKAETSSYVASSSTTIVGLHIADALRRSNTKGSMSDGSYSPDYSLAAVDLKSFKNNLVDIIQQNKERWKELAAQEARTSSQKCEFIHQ
In assay [7] the test system is HT-29 vector control cells. The assay is described as follows: Growth inhibition, HT-29 vector control cells. The conditions noted are these: Homo sapiens. It is filed as cell-based. Here is the method:
as §2, §4

A further assay concerns KM12. The assay is described as follows: Growth inhibition assay (Cell Titer Glo), KM12. Type of assay: cell-based. The conditions noted are these: Homo sapiens; KM12, 72 hours. The method, then: as §2
A further assay has as its target PDE9A (Homo sapiens, UniProt O76083). The experiment in a line: Phosphodiesterase isozyme specificity, PDE9A. It is filed as biochemical. The conditions noted are these: cGMP substrate, @ 10 μM.
For a further assay, the system named is HCT116. The assay is described as follows: Growth inhibition assay (Cell Titer Glo), HCT116. It is filed as cell-based. The conditions noted are these: Homo sapiens, HCT-116; HCT116, 72 hours. Here is the method: as §2
The subject of the next assay is HT-29 colon tumor cells. The experiment in a line: Fluorescent cytotoxicity assay (CellTox Green). It is filed as cell-based, human. The conditions noted are these: dose response over time. The method, then: Cells were plated in 96-well microtiter plates at a […] of 5,000 cells per well and treated with compound or vehicle control at the doses and times indicated. Cytotoxicity was measured using CellTox Green Cytotoxicity Assay (Promega) according to the manufacturer's recommendations.

Assay [8] concerns HT-29 cells. The experiment in a line: Apoptosis, Annexin V-FITC + PI staining by FACS. Type of assay: cell-based, human. The conditions noted are these: 72 hours; for cells staining positive for Annexin V: lower right quadrant; for cells staining positive for both Annexin V and PI: upper right quadrant. The method, then:
Apoptosis was assayed using the Annexin V-FITC + PI apoptosis detection kit from Leinco Technologies according to the manufacturer's recommendations. HT-29 cells were incubated with compounds for 72 hrs at 37°C before being analyzed for apoptosis by FACS.

Assay [9] concerns panel of nine human colon tumor cell lines. The experiment in a line: Growth inhibition, panel of nine human colon tumor cell lines. The conditions noted are these: 72 hours, read-out: growth inhibition IC50 values, range over all lines. It is filed as cell-based. Here is the method:
as §2

The test system of a further assay is COLO-205. The assay is described as follows: Growth inhibition assay (Cell Titer Glo), COLO-205. Type of assay: cell-based. The conditions noted are these: Homo sapiens; COLO-205, 72 hours. Here is the method: as §2
The target of another assay is PDE2A (Homo sapiens, UniProt O00408). The experiment in a line: Phosphodiesterase isozyme specificity, PDE2A. Type of assay: biochemical.
Chain of PDE2A (O00408 whole entry, species assumed): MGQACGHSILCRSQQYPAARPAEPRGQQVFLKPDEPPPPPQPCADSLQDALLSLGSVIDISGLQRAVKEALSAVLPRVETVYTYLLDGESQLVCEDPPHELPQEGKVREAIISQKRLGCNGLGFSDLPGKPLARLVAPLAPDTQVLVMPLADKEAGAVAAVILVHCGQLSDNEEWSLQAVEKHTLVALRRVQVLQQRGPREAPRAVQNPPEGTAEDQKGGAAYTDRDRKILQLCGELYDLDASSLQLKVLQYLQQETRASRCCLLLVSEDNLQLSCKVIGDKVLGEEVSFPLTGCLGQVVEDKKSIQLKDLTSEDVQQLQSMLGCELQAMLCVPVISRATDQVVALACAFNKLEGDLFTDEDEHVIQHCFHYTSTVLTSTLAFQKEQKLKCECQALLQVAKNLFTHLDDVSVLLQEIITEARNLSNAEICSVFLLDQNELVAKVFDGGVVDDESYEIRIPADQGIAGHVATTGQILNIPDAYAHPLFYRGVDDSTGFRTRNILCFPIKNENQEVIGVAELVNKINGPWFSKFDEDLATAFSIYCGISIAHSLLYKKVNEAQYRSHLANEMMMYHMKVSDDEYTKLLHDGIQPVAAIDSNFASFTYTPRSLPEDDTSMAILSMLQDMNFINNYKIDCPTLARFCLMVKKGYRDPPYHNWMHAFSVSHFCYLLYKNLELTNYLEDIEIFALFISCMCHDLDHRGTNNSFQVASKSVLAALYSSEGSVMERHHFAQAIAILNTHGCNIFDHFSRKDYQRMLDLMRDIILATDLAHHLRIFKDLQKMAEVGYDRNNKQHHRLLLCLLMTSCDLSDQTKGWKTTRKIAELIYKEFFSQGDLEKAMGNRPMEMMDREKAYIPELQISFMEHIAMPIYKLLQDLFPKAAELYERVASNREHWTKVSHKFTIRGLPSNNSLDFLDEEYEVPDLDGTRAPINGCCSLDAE
The test system of assay [10] is HCT-116. The experiment in a line: cGMP EIA assay, intracellular cGMP. Type of assay: cell-based, human. The conditions noted are these: HCT-116, concentration-dependent. Here is the method:
Total levels of cGMP were measured using a competitive ELISA assay (Cayman Chemical) according to the manufacturer's recommendations. A standard curve is generated using samples of known cGMP concentrations provided with the assay and plotted using linear regression to extrapolate samples.

The test system of the next assay is colon tumor cell. The experiment in a line: Colon tumor cell growth, rolipram. Type of assay: cell-based. The conditions noted are these: concentrations up to 100 μM, data not shown.
Setting [11] is: HT-29, 10 minutes pretreatment in ascending concentrations, then 5μM Pf-2545920 for 1 hour.
The mark [12] stands for this setting: HT-29, 30 minutes pretreatment in ascending concentrations, then 5 μM Pf-2545920 for 1 hour.
[13] abbreviates: cAMP substrate, read-out: cAMP IC50.
[14] abbreviates: cGMP substrate, read-out: cGMP IC50.

Chain of PDE11A (Q9HCR9 whole entry, species assumed): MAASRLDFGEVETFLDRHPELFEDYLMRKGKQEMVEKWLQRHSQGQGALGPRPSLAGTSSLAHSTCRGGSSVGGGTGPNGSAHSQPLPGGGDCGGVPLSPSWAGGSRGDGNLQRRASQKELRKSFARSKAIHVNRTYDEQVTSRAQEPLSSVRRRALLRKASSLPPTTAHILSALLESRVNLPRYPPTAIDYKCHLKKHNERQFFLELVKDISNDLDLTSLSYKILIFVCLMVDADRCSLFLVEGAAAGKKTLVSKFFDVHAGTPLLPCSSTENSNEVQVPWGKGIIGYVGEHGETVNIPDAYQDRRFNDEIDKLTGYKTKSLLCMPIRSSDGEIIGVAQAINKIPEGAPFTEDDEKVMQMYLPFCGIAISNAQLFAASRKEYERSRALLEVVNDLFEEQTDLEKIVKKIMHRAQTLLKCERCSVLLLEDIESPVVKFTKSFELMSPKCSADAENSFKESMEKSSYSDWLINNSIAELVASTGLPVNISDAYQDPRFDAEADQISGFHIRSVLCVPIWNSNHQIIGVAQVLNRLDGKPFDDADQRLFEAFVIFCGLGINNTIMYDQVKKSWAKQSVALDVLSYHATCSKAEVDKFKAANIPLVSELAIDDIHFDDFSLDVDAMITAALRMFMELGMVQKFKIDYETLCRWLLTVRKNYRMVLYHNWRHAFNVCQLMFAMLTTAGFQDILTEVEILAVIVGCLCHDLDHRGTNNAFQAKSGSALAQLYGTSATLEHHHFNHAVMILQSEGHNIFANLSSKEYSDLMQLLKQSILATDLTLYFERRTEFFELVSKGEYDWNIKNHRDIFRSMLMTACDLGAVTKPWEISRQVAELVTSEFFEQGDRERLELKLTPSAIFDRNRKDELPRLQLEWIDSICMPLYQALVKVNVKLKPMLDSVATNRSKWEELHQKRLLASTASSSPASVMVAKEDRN
Chain of PDE3B (Q13370 whole entry, species assumed): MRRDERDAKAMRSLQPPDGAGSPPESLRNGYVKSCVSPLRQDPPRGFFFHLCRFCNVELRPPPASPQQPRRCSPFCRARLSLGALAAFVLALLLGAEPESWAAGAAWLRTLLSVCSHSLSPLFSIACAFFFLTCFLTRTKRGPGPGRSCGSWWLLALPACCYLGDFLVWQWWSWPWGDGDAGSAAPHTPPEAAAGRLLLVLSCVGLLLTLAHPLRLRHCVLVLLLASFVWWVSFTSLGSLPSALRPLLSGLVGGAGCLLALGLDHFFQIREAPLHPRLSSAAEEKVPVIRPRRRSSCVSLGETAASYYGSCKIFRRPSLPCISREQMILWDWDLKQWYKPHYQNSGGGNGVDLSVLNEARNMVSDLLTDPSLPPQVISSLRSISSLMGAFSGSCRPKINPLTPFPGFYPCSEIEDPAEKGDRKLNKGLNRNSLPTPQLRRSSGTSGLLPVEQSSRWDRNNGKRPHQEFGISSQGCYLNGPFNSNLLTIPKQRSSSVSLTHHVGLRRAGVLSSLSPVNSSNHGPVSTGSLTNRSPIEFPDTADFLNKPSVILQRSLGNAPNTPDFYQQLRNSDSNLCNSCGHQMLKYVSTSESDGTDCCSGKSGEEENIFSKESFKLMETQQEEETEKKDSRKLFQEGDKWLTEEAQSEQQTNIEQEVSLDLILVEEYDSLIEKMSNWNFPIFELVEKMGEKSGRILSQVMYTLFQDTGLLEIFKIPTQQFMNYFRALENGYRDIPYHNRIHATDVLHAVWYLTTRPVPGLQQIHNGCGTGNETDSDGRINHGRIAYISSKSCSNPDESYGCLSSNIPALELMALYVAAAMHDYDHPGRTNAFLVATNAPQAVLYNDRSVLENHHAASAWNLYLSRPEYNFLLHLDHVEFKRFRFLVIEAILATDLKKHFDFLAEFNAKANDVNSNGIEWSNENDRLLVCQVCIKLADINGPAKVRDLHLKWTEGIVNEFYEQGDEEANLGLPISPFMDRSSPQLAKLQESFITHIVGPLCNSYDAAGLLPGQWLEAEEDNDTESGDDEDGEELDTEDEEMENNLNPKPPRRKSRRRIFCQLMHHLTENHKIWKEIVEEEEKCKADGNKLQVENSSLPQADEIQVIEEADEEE

With `O=S(=O)(NCCNC/C=C/c1ccc(Br)cc1)c1cccc2cnccc12` [H89], the “effect on sensitivity of cells to growth inhibitory activity of Pf-2545920” value in the assay with HT-29 cells [1] (HT-29, 0.1μM H89 for 10 minutes before Pf-2545920 for 72 hours) was “had no effect on the sensitivity”. Also, in the assay with HT-29 cells [2] (setting [11]), the “PKA activation (VASP phosphorylation at serine 157)” value is “blocks the activation of PKA in a concentration-dependent manner” and the “PKG activation (VASP phosphorylation at serine 239)” value was “blocking the activation of PKG, albeit at higher concentrations”.
As to `COC(=O)[C@@]1(OC)C[C@H]2O[C@]1(C)n1c3ccccc3c3c4c(c5c6ccccc6n2c5c31)C(=O)N(C)C4` [KT 5823], in the assay with HT-29 cells [3], the “apoptosis by Western blot for cleaved-PARP” value is “reduced apoptosis”. Also, in the assay with HT-29 cells [2] (setting [12]), the “PKA activity (VASP phosphorylation at serine 157)” value was “minimally affecting the activity of PKA” and the “PKG activation (VASP phosphorylation at serine 239)” value is recorded as “caused a decrease in PKG activation”.
Turning to `Cn1cc(-c2ccncc2)c(-c2ccc(OCc3ccc4ccccc4n3)cc2)n1` [Pf-2545920, 2-[4-(1-Methyl-4-pyridin-4-yl-1H-pyrazol-3-yl)-phenoxymethyl]-quinoline], the IC50 in [4] was 13.4 µM; with HCC-2998, 18.9 µM; against PDE5, 8.6 µM; with HCT-15, 14.4 µM; at PDE3A (setting [13]), over 50 µM; at PDE3A (setting [14]), over 50 µM. Moreover, the IC50 with SW620 was found to be 19.6 µM; at PDE4B2, 2.36 µM; in the assay with HT-29 cells [1] (HT-29, pretreated with 0.1μM H89 for 10 minutes, 72 hours), 4.8 µM; in the assay on HT-29 cells [1] (HT-29, without H89, 72 hours), 4.6 µM; in assay [7] it was 1.2 µM; in the assay with KM12 it was 6.9 µM. Further, the IC50 in the assay with HCT116 is 19.3 µM; in assay [9], 6.9 to 19.6 µM; in the assay on COLO-205 it was 18.5 µM; on PDE2A (setting [13]), 36.6 µM; at PDE2A (setting [14]) it was over 50 µM. Further, the “cAMP IC50” value at PDE3B (cAMP substrate), on PDE11A (cAMP substrate) and on PDE1A (cAMP substrate) was “Inactive @ 10 μM” in each case. In addition, the “cGMP IC50” value on PDE3B (cGMP substrate), on PDE11A (cGMP substrate), on PDE1A (cGMP substrate) and on PDE9A was “Inactive @ 10 μM” in each case. In the assay with HCT-116 [5], the “intracellular cAMP levels” value is “increased”. Also, the “β-catenin in the nucleus” value in the assay on SW-480 colon tumor cells (SW-480, 10 μM) is given as “reduced the amount of β-catenin in the nucleus”. The “total protein levels of β-catenin” value in the assay on SW-480 colon tumor cells (SW-480, 25 μM) is “total protein levels of β-catenin are decreased”. Besides, the “phosphorylated VASP (serine 239 and serine 157)” value in assay [6] (HCT-116, 5 μM, time course up to 8 hours, time-dependent) is “increased the level of phosphorylated VASP”. For the same compound, the “PKG and PKA activation (phosphorylation of VASP and CREB)” value in assay [6] (HCT-116, dose response, 1 hour) was “activated both PKG and PKA”. Besides, in the assay on HT-29 colon tumor cells, the “cell death (fluorescence intensity)” value is on record as “induces cell death in a concentration-dependent manner”. For the same compound, the “cells staining positive for Annexin V” value in the assay on HT-29 cells [8] (HT-29, 10 μM) was determined as 25.9%; in the assay with HT-29 cells [8] (HT-29, 25 μM), 38.2%. The “cells staining positive for both Annexin V and PI” value with HT-29 cells [8] (HT-29, 10 μM) was determined as 31.9%; in the assay on HT-29 cells [8] (HT-29, 25 μM) it was 31.4%. Also, the “intracellular cGMP levels” value in the assay with HCT-116 [10] is “increased”.
Regarding `COc1ccc(C2CNC(=O)C2)cc1OC1CCCC1` (stereo not drawn) [rolipram], the “colon tumor cell growth” value in the assay on colon tumor cell is “did not affect colon tumor cell growth”.
